Results: publication PMC11054274, “Dual Antitubercular and Antileishmanial Profiles of Quinoxaline Di-N-Oxides Containing an Amino Acidic Side Chain” (Pharmaceuticals, 2024)
Read-outs that look alike come from different tables or passages of the source.

Columns and labels:
[1] = system: Mycobacterium tuberculosis H37Rv; experiment: In vitro activity against Mycobacterium tuberculosis H37Rv, microdilution AlamarBlue broth assay (BacTiter-Glo alternative read-out); type: cell-based; conditions: Table S1, Mtb H37Rv; for IC50: read-out: IC50, antibacterial activity against Mtb H37Rv; for IC90: read-out: IC90, antibacterial activity against Mtb H37Rv
[2] = system: Leishmania amazonensis promastigotes; experiment: Promastigote susceptibility assay (resazurin), L. amazonensis; type: cell-based
Experimental: (§1) The following species of Leishmania were used: L. donovani (MHOM/IN/80/DD8), which was purchased (ATCC, Manassas, VA, USA), and L. amazonensis (MHOM/Br/79/Maria), which was kindly provided by Prof. Alfredo Toraño (Instituto de Salud Carlos III, Madrid, Spain). Promastigotes were cultured in Schneider’s Insect Medium supplemented with 10% heat-inactivated Fetal Bovine Serum (FBS) (SIGMA-Merck, Madrid, Spain) and 1000 U/L of penicillin plus 100 mg/L of streptomycin in 25 mL culture flasks at 26 °C.
(§2) The activity of the compounds on Leishmania promastigotes was performed according to the method previously reported by us. Briefly, promastigotes (2.5 × 10^5 parasites/well) were cultured in 96-well plastic plates. The compounds were dissolved in dimethylsulfoxide (DMSO). Serial dilutions at 1:2 of the test compounds in fresh culture medium were performed (100, 50, 25, 12.5, 6.25, 3.12, 1.56 and 0.78 µg/mL) in a final volume of 200 µL; the solutions were then added to the parasite suspension. After an incubation period of 48 h at 26 °C, a volume of 20 μL of 2.5 mM resazurin solution in PBS was added and the plates were incubated for 3 h under the same conditions. Finally, the Relative Fluorescence Unit (RFU) (535ex–590em nm wavelength) was determined in a fluorimeter (Infinite 200 Tecan i-Control). Growth inhibition (%) was calculated by 100—[(RFU treated wells—RFU signal-to-noise)/(RFU untreated—RFU signal-to-noise) × 100]. All tests were carried out in triplicate and the IC50 was calculated by probit analysis using SPSS 17.0 Statistics Software. Miltefosine (Sigma-Merck, Madrid, Spain) was used as the reference drug.

[3] = system: Leishmania donovani promastigotes; experiment: Promastigote susceptibility assay (resazurin), L. donovani; type: cell-based; conditions: for IC50: Table S2, promastigotes, 48 h
Experimental: as §1, §2

[4] = system: Leishmania amazonensis amastigotes; experiment: Intracellular amastigote assay in J774 macrophages, L. amazonensis; type: cell-based; conditions: for L. amazonensis amastigote selectivity index (SI): SI = CC50 (J774 macrophages)/IC50
Experimental: (§3) We performed an intracellular amastigote assay on L. amazonensis and L. donovani according to a fluorometric method reported by us. To carry out the in vitro macrophage infections, 5 × 10^4 cells were cultured in RPMI-1640 medium and then were infected with 5 × 10^5 promastigotes. In the L. donovani assays, the plates were incubated for 48 h at 37 °C, while in the L. amazonensis assays, they were incubated at 33 °C for the first 24 h and then the temperature was increased to 37 °C for the next 24 h. After, the culture medium was removed and the cells were washed with buffered RPMI-HEPES at pH 7.4 several times in order to eliminate the non-internalized promastigotes. A total of 100 µL of fresh medium tempered at 37 °C was added to the infected cells, which then were exposed to 100 µL of the test compounds in RPMI-1640 at different concentrations (100, 50, 25, 12.5, 6.25, 3.12, 1.56 and 0.78 µg/mL in a final volume of 200 µL) for 48 h at 37 °C. The culture medium was removed by centrifugation at 3500 rpm for 5 min (Centrifuge 5403 Eppendorf) and a lysis solution (0.02% sodium dodecyl sulfate in RPMI-HEPES) was added. After 20 min, the treated cells were harvested (centrifugation at 3500 rpm for 5 min at 4 °C) and the supernatants were replaced by 200 μL of fresh Schneider’s culture medium. The plates were then incubated at 26 °C for another 3 days to allow for the transformation of viable amastigotes into promastigotes and proliferation. Afterwards, 20 μL/well of 2.5 mM resazurin was added and incubated for another 3 h. Finally, URF was measured and IC50 was estimated as described above. All tests were carried out in triplicate. Miltefosine was used as the reference drug.

[5] = system: Leishmania donovani amastigotes; experiment: Intracellular amastigote assay in J774 macrophages, L. donovani; type: cell-based; conditions: for IC50: Table S3, intracellular amastigotes, 48 h
Experimental: as §3

J774 murine macrophages = experiment: Cytotoxicity assay on macrophages (resazurin); type: cell-based; conditions: 24 h exposure, read-out: Toxicity against J774 macrophages CC50
Experimental: (§4) J774 murine macrophages were grown in RPMI-1640 medium (Sigma) supplemented with 10% heat-inactivated FBS (30 min at 56 °C) (SIGMA-Merck), penicillin G (100 U/mL) and streptomycin (100 µg/mL). For the experiments, cells in the pre-confluence phase were harvested with trypsin. Cell cultures were maintained at 37 °C in a humidified environment with 5% CO2.
(§5) Cell viability was evaluated using a modification with resazurin of the colorimetric method described previously. J774 macrophages were seeded (5 × 10^4 cells/well) in 96-well flat-bottom microplates with 100 µL of RPMI-1640 medium. The cells were allowed to adhere for 4 h at 37 °C in 5% CO2, then different concentrations of the test compounds in 100 µL of the medium were added and exposed for 24 h. Growth controls were also included. To evaluate cell viability, 20 µL of a 2.5 mM resazurin solution was added and the plates were returned to the incubator for another 3 h. The reduction in resazurin was determined by measuring the fluorescence intensity (excitation wavelength, 535 nm; emission wavelength, 590 nm). Each concentration was assayed three times. The medium and controls were used in each test as blanks. The cytotoxic effect of the compounds was defined as the 50% reduction in cell viability of treated culture cells with respect to the untreated culture (CC50).

[6] = Cytotoxicity assay on macrophages (resazurin); type: cell-based, murine; conditions: mouse, J774 macrophages, 24 h exposure, read-out: Toxicity against J774 macrophages CC50
Experimental: as §4, §5

[7] = Table S2, promastigotes, 48 h, read-out: L. amazonensis IC50 (promastigote)
[8] = Table S3, intracellular amastigotes, 48 h, read-out: L. amazonensis IC50 (amastigote)
[9] = read-out: IC50 against L. amazonensis amastigotes
[10] = SI = CC50 (J774 macrophages)/IC50

Compound	IC50 [1]	IC90 [1]	IC50 [2, 7]	IC50 [3]	IC50 [4, 8]	IC50 [5]	IC50 [4, 9]	CC50 (J774 murine macrophages; Table S2)	CC50 (J774 murine macrophages; Table S3)	also measured
COC(=O)CNC(=O)c1c(-c2cccc(Cl)c2)[n+]([O-])c2cc(OC)ccc2[n+]1[O-] [Compound 4g, N-(6-Methoxy-1,4-dioxide-3-(3-chlorophenyl)quinoxaline-2-carbonyl)glycine methyl ester]	50 µM	71.9 µM	112 ± 13.7 µM	40 ± 6.7 µM	23.2 ± 4.1 µM	77.5 ± 6.2 µM				
COC(=O)CNC(=O)c1c(-c2ccccc2C)[n+]([O-])c2cc(OC)ccc2[n+]1[O-] [Compound 4k, N-(6-Methoxy-1,4-dioxide-3-(2-methylphenyl)quinoxaline-2-carbonyl)glycine methyl ester]	25.9 µM	44.6 µM	117 ± 14.3 µM	23.9 ± 2.2 µM		72.2 ± 18.6 µM	7.2 µM	330 ± 75.5 µM		
COC(=O)CNC(=O)c1c(-c2ccc(F)cc2)[n+]([O-])c2cc(C)ccc2[n+]1[O-] [Compound 4m, N-(6-Methyl-1,4-dioxide-3-(4-fluorophenyl)-quinoxaline-2-carbonyl)glycine methyl ester]	18.3 µM	36.5 µM	62.8 ± 1.6 µM	84.8 ± 8.9 µM		285 ± 115 µM	74.4 µM	454 µM	454 µM	
CCCCCCCCCCCCCCCCOP(=O)([O-])OCC[N+](C)(C)C [Miltefosine, reference compound]										IC50 ([2]; Leishmania amazonensis, read-out: IC50 against L. amazonensis (promastigote)): 47.9 µM; L. amazonensis promastigote selectivity index (SI) [2, 10]: 2.8; IC50 ([3]; Leishmania donovani): 0.2 ± 0.02 µM; L. donovani promastigote selectivity index (SI) [3, 10]: 680.5; IC50 ([4]; Leishmania amazonensis, J774, Table S3, intracellular amastigotes, 48 h, read-out: L. amazonensis IC50 (amastigote)): 47.6 ± 7.4 µM; IC50 ([4]; Leishmania amazonensis, J774, read-out: IC50 against L. amazonensis amastigotes): 136 µM; L. amazonensis amastigote selectivity index (SI) [4]: 2.9; L. amazonensis amastigote selectivity index (SI) ([4]; listed as miltefosine): 2.87; IC50 ([5]; Leishmania donovani, J774): 7.1 µM; L. donovani amastigote selectivity index (SI) [5, 10]: 19.1; CC50 at 24 h ([6]; Table S2): 136 ± 10.3 µM; CC50 at 24 h ([6]; Table S3): 136 µM
N-(1,4-Dioxide-3-((4-fluorophenyl)quinoxaline-2-carbonyl)glycine methyl ester [Compound 4d]	28.6 µM	47.7 µM	125 ± 1.43 µM	165 ± 10.2 µM		234 ± 5.9 µM	9.8 µM	539 µM	539 µM	
N-(6-Methoxy-1,4-dioxide-3-(4-florophenyl)quinoxaline-2-carbonyl)glycine methyl ester [Compound 4i]	47.2 µM	66.5 µM	117 ± 8 µM	46.9 ± 14.2 µM	12.9 ± 1.7 µM	71 ± 11 µM		379 ± 49.9 µM		
N-(6-Methoxy-1,4-dioxide-3-(4-trifloromethylphenyl)quinoxaline-2-carbonyl)glycine methyl ester [Compound 4h]	8.46 µM	12.4 µM	122 ± 9.9 µM	25.3 ± 1.55 µM	20.9 ± 4 µM	39.5 ± 7.5 µM		554 µM	554 µM	
